The text below walks through data of ChEMBL document CHEMBL5537148, “Discovery of (quinazolin-6-yl)benzamide derivatives containing a 6,7-dimethoxy-1,2,3,4-tetrahydroisoquinoline moiety as potent reversal agents against P-glycoprotein-mediated multidrug resistance” (Eur J Med Chem, 2024).

The nature of data set [1]: Reversal fold, ratio of adriamycin IC50 to adriamycin IC50 in presence of 0.1 uM test compound for reversal of adriamycin-mediated resistance in human MCF7/ADM cells by MTT method. In kind it is functional.
Data set [2] can be described thus: Antitumor activity against human MCF7/ADM cells xenografted in BABL/c mouse assessed as tumor growth inhibition at 2 mg/kg, ip administered once every 3 days for 25 days in the presence of adriamycin relative to control. The following applies: 600 h, time 25 day, read-out: TGI. It is filed as functional.
Data set [3] concerns MCF7/ADM. Nature of the data set: Inhibition of cell migration in human MCF7/ADM cells at 0.1 uM incubated for 24 to 48 hrs in the presence of adriamycin by Wound healing assay. In kind it is functional, cell-based. The following applies: time 24-48 hrs.
Data set [4] has as its system MCF7/ADM. Kind of data set: Antitumor activity against human MCF7/ADM cells xenografted in BABL/c mouse assessed as decrease in tumor weight at 2 mg/kg, ip administered once every 3 days for 25 days in the presence of adriamycin. In kind it is functional, organism-based. The settings on record: time 25.0 day. (Xenograft models place foreign cells or tissue in a host animal.)

Data set [5] concerns the target ATP-dependent translocase ABCB1 (Homo sapiens, UniProt P08183). Nature of the data set: Inhibition of P-gp-mediated rhodamine-123 efflux in human MCF7/ADM cells assessed as increase in fluorescence intensity at 0.1 uM incubated for 6 hrs followed by Rh123 addition for 3 hrs by Fluorescence microplate reader analysis. It is filed as cell-based. The following applies: 9 h.

The subject of data set [6] is MCF7/ADM. Nature of the data set: Antitumor activity against human MCF7/ADM cells xenografted BABL/c mouse model assessed as increase in tumor necrosis at 2 mg/kg, ip administered once every 3 days for 25 days in the presence of adriamycin by H&E staining based analysis. It is filed as functional, organism-based. The following applies: time 25.0 day.
Data set [7] has as its system MCF7/ADM. Nature of the data set: Antitumor activity against human MCF7/ADM cells xenografted in BABL/c mouse assessed as increase in tumor degeneration at 2 mg/kg, ip administered once every 3 days for 25 days in the presence of adriamycin by H&E staining based analysis. It is filed as functional, organism-based. The following applies: time 25.0 day.
The subject of data set [8] is MCF7/ADM. Nature of the data set: Effect on P-gp expression in human MCF7/ADM cells at 0.1 uM by Western blot analysis. It is filed as functional, cell-based. Background: In western blotting, separated proteins are transferred to a membrane and probed.
The nature of data set [9]: Toxicity in Balb/c mouse xenografted with human MCF7/ADR cells assessed as kidney cell necrosis at 2 mg/kg, ip administered once every 3 days for 25 days in presence of adriamycin by H&E staining based analysis. It is filed as organism-based, NCI/ADR-RES. The settings on record: in vivo, 600 h, time 25 day.
Data set [10] in a line: Toxicity in Balb/c mouse xenografted with human MCF7/ADR cells assessed as liver cell necrosis at 2 mg/kg, ip administered once every 3 days for 25 days in presence of adriamycin by H&E staining based analysis. In kind it is organism-based, NCI/ADR-RES. The settings on record: in vivo, 600 h, time 25 day.
The subject of data set [11] is MCF7/ADM. Kind of data set: Induction of apoptosis in human MCF7/ADM cells incubated for 48 hrs in presence of adriamycin by Annexin V-FITC/PI staining based flow cytometric analysis. In kind it is functional, cell-based. The settings on record: dose 0.1-1 µM. (In general: A flow cytometer gives signals particle by particle.)
For data set [12], the system named is MCF7/ADM. Kind of data set: Inhibition of cell invasion in human MCF7/ADM cells at 0.1 uM incubated for 24 hrs in the presence of adriamycin by Transwell assay. It is filed as functional, cell-based.
Data set [13] concerns MCF7/ADM. Nature of the data set: Inhibition of colony formation in human MCF7/ADM cells at 0.1 uM incubated for 15 days with fresh media replacement for every 2 days in the presence of adriamycin by crystal violet staining based imaging analysis. In kind it is functional, cell-based. The settings on record: time 15.0 day.
In data set [14] the test system is MCF7/ADM. Kind of data set: Antitumor activity against human MCF7/ADM cells xenografted in BABL/c mouse assessed as decrease in tumor volume at 2 mg/kg, ip administered once every 3 days for 25 days in the presence of adriamycin. It is filed as functional, organism-based. The settings on record: time 25.0 day.
The nature of data set [15]: Toxicity in Balb/c mouse xenografted with human MCF7/ADR cells assessed as kidney cell necrosis at 10 mg/kg, ip administered once every 3 days for 25 days by H&E staining based analysis. It is filed as organism-based, NCI/ADR-RES. The following applies: in vivo, 600 h, time 25 day.
Data set [16] can be described thus: Toxicity in Balb/c mouse xenografted with human MCF7/ADR cells assessed as liver cell necrosis at 10 mg/kg, ip administered once every 3 days for 25 days by H&E staining based analysis. The settings on record: in vivo, 600 h, time 25 day. In kind it is organism-based, NCI/ADR-RES.

Each structure is given as a SMILES string. Active and inactive are the calls of the source. No cut-off for these calls is given here.

ATP-dependent translocase ABCB1, sequence (P08183 whole entry): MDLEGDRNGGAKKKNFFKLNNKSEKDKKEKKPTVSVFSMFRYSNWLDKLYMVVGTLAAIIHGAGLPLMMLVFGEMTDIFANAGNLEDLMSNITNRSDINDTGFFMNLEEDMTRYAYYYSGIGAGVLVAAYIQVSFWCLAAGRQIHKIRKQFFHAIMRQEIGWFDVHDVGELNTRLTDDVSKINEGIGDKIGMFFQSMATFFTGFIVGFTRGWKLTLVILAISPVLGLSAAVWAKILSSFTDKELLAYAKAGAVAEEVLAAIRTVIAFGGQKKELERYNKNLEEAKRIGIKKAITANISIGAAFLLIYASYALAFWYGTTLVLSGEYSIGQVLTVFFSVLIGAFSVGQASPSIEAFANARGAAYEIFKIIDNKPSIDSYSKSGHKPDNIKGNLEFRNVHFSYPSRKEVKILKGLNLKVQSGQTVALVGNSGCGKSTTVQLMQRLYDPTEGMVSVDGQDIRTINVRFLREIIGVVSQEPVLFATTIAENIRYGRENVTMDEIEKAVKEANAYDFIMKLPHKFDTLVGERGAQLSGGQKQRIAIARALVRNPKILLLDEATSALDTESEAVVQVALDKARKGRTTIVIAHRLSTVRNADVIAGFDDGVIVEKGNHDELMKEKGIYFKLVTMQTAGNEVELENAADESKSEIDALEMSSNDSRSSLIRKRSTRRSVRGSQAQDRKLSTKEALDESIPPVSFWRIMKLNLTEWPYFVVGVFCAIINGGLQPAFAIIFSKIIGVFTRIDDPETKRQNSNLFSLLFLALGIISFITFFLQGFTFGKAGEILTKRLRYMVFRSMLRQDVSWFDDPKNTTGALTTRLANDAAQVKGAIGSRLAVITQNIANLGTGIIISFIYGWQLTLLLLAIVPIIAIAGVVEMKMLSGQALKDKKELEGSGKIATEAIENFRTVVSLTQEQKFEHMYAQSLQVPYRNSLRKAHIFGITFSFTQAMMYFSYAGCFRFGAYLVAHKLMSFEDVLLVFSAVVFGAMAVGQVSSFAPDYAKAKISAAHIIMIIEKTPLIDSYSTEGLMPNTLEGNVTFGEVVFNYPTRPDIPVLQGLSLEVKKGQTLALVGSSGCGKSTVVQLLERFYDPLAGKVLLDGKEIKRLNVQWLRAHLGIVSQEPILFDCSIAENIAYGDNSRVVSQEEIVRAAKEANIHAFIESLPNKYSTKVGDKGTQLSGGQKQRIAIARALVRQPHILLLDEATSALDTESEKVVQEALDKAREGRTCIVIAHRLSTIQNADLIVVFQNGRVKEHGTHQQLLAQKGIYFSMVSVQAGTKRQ

As for `COc1cc2c(cc1OC)CN(CCNC(=O)c1ccc(-c3ccc4ncnc(NCc5ccc(F)cc5)c4c3)cc1)CC2`, in [1], the “Ratio IC50” value is 12.1.

On to `COc1ccccc1Nc1ncnc2ccc(-c3ccc(C(=O)NCCN4CCc5cc(OC)c(OC)cc5C4)cc3)cc12`, for which the inhibition in vivo at 2 mg/kg in data set [2] stood at 69.7%. The inhibition entry with MCF7/ADM [3], with MCF7/ADM [12] and in the data set with MCF7/ADM [13] was “Active” each time. In addition, the “Ratio IC50” value in [1] is recorded as 83.4. Further, the outcome with MCF7/ADM [4], in the data set with MCF7/ADM [6], in the data set on MCF7/ADM [7] and in the data set on MCF7/ADM [14] was Active. In data set [5], the “inhibition (INH)” value is “Active”. Also, in the data set with MCF7/ADM [8], the outcome was inactive. The Activity result in data set [9] is “Non-Toxic”; in data set [10] it was “Non-Toxic”; in the data set on MCF7/ADM [11], “Dose-Dependent Effect”.

On to `COc1cc2c(cc1OC)CN(CCNC(=O)c1ccc(-c3ccc4ncnc(Nc5ccccc5)c4c3)cc1)CC2`, for which the “Ratio IC50” value in data set [1] stood at 3.5.

On to `COc1cc2c(cc1OC)CN(CCNC(=O)c1ccc(-c3ccc4ncnc(Nc5ccccc5Br)c4c3)cc1)CC2`, for which the “Ratio IC50” value in data set [1] was 16.6.

As for `COc1cc2c(cc1OC)CN(CCNC(=O)c1ccc(-c3ccc4ncnc(NCc5cccc(F)c5)c4c3)cc1)CC2`, in data set [1], the “Ratio IC50” value was 22.2.

`COc1cc2c(cc1OC)CN(CCNC(=O)c1ccc(-c3ccc4ncnc(NCc5ccc(Cl)cc5)c4c3)cc1)CC2`: the “Ratio IC50” value in data set [1] was found to be 9.3.

For the compound `COc1cc2c(cc1OC)CN(CCNC(=O)c1ccc(-c3ccc4ncnc(NCc5ccccc5F)c4c3)cc1)CC2`, the “Ratio IC50” value in data set [1] came to 7.2.

In the case of `COc1ccc(Nc2ncnc3ccc(-c4ccc(C(=O)NCCN5CCc6cc(OC)c(OC)cc6C5)cc4)cc23)cc1F`, the “Ratio IC50” value in [1] is 25.2.

As to `COc1cc2c(cc1OC)CN(CCNC(=O)c1ccc(-c3ccc4ncnc(Nc5ccccc5C)c4c3)cc1)CC2`, the “Ratio IC50” value in [1] was found to be 41.3.

`COc1cc2c(cc1OC)CN(CCNC(=O)c1ccc(-c3ccc4ncnc(Nc5ccc(Br)cc5)c4c3)cc1)CC2`: the “Ratio IC50” value in data set [1] is given as 16.3.

Take `COc1cc2c(cc1OC)CN(CCNC(=O)c1ccc(-c3ccc4ncnc(Nc5ccc(F)cc5)c4c3)cc1)CC2`: in [1], the “Ratio IC50” value is 14.1.

In the case of `COc1cc2c(cc1OC)CN(CCNC(=O)c1ccc(-c3ccc4ncnc(Nc5ccc(Cl)cc5)c4c3)cc1)CC2`, the “Ratio IC50” value in data set [1] is 4.3.

For the compound `COc1cc2c(cc1OC)CN(CCNC(=O)c1ccc(-c3ccc4ncnc(Nc5ccc(C)cc5)c4c3)cc1)CC2`, the “Ratio IC50” value in data set [1] amounted to 3.1.

In the case of `COc1cc2c(cc1OC)CN(CCNC(=O)c1ccc(-c3ccc4ncnc(Nc5cccc(C#N)c5)c4c3)cc1)CC2`, the “Ratio IC50” value in data set [1] was determined as 2.5.

As for `COC(=O)c1ccc(Nc2ncnc3ccc(-c4ccc(C(=O)NCCN5CCc6cc(OC)c(OC)cc6C5)cc4)cc23)cc1`, in [1], the “Ratio IC50” value turned out to be 10.1.

For `COc1cc2c(cc1OC)CN(CCNC(=O)c1ccc(-c3ccc4ncnc(Nc5cccc(Cl)c5)c4c3)cc1)CC2`, the “Ratio IC50” value in data set [1] is given as 11.6.

With `COc1cc2c(cc1OC)CN(CCNC(=O)c1ccc(-c3ccc4ncnc(Nc5cccc(Br)c5)c4c3)cc1)CC2`, the “Ratio IC50” value in [1] was determined as 3.4.

As for `COc1cc2c(cc1OC)CN(CCNC(=O)c1ccc(-c3ccc4ncnc(NCc5ccccc5)c4c3)cc1)CC2`, in data set [1], the “Ratio IC50” value is given as 3.3.

Turning to `COc1cc2c(cc1OC)CN(CCNC(=O)c1ccc(-c3ccc4ncnc(NCc5cccc(Cl)c5)c4c3)cc1)CC2`, the “Ratio IC50” value in [1] is 1.5.

With `COc1cc2c(cc1OC)CN(CCNC(=O)c1ccc(-c3ccc4ncnc(Nc5cccc(C)c5)c4c3)cc1)CC2`, the “Ratio IC50” value in [1] worked out at 24.3.

With `COc1cccc2c1C(=O)c1c(O)c3c(c(O)c1C2=O)C[C@@](O)(C(=O)CO)C[C@@H]3O[C@H]1C[C@H](N)[C@H](O)[C@H](C)O1.Cl` [DOXORUBICIN HYDROCHLORIDE], the Activity result in data set [15] and in data set [16] was “Non-Toxic” in each case.

As for `COc1cc2c(cc1OC)CN(CCNC(=O)c1ccc(-c3ccc4ncnc(NCc5cccc(Br)c5)c4c3)cc1)CC2`, in [1], the “Ratio IC50” value stood at 1.2.

Turning to `COc1cc2c(cc1OC)CN(CCNC(=O)c1ccc(-c3ccc4ncnc(Nc5ccccc5F)c4c3)cc1)CC2`, the “Ratio IC50” value in [1] is on record as 2.4.

With `COc1cc2c(cc1OC)CN(CCNC(=O)c1ccc(-c3ccc4ncnc(Nc5cccc(F)c5)c4c3)cc1)CC2`, in [1], the “Ratio IC50” value was determined as 5.3.

`COC(=O)c1cccc(Nc2ncnc3ccc(-c4ccc(C(=O)NCCN5CCc6cc(OC)c(OC)cc6C5)cc4)cc23)c1`: the “Ratio IC50” value in data set [1] is 2.4.

As to `COc1cccc(Nc2ncnc3ccc(-c4ccc(C(=O)NCCN5CCc6cc(OC)c(OC)cc6C5)cc4)cc23)c1`, the “Ratio IC50” value in data set [1] worked out at 1.3.

`COc1cc2c(cc1OC)CN(CCc1ccc(NC(=O)c3cc(OC)c(OC)cc3NC(=O)c3cnc4ccccc4c3)cc1)CC2` [TARIQUIDAR]: the inhibition in vivo at 2 mg/kg in data set [2] was 49.4%. The inhibition entry in the data set with MCF7/ADM [3] and in the data set on MCF7/ADM [12] was “Active” throughout. In addition, in data set [1], the “Ratio IC50” value is given as 11. Also, the outcome with MCF7/ADM [4] and with MCF7/ADM [14] was Active. Also, the “inhibition (INH)” value in [5] is “Active”. Further, the Activity entry in [9] and in [10] was “Non-Toxic” in each case.

`COc1cc2c(cc1OC)CN(CCNC(=O)c1ccc(-c3ccc4ncnc(Nc5ccccc5Cl)c4c3)cc1)CC2`: in data set [1], the “Ratio IC50” value stood at 13.3.
